The results in this text go back to ChEMBL document CHEMBL2069169, “Novel triazines as potent and selective phosphodiesterase 10A inhibitors” (Bioorg Med Chem Lett, 2012).

A value given as a limit tells only on which side of the number the result lay.

Data set [1] deals with cAMP and cAMP-inhibited cGMP 3',5'-cyclic phosphodiesterase 10A (Homo sapiens, UniProt Q9Y233). The data set can be described thus: Inhibition of human recombinant PDE10A-catalyzed cAMP hydrolysis.
The target in data set [2] is cGMP-dependent 3',5'-cyclic phosphodiesterase (Homo sapiens, UniProt O00408). The data set can be described thus: Inhibition of PDE2.
Sequence of cGMP-dependent 3',5'-cyclic phosphodiesterase (O00408 whole entry): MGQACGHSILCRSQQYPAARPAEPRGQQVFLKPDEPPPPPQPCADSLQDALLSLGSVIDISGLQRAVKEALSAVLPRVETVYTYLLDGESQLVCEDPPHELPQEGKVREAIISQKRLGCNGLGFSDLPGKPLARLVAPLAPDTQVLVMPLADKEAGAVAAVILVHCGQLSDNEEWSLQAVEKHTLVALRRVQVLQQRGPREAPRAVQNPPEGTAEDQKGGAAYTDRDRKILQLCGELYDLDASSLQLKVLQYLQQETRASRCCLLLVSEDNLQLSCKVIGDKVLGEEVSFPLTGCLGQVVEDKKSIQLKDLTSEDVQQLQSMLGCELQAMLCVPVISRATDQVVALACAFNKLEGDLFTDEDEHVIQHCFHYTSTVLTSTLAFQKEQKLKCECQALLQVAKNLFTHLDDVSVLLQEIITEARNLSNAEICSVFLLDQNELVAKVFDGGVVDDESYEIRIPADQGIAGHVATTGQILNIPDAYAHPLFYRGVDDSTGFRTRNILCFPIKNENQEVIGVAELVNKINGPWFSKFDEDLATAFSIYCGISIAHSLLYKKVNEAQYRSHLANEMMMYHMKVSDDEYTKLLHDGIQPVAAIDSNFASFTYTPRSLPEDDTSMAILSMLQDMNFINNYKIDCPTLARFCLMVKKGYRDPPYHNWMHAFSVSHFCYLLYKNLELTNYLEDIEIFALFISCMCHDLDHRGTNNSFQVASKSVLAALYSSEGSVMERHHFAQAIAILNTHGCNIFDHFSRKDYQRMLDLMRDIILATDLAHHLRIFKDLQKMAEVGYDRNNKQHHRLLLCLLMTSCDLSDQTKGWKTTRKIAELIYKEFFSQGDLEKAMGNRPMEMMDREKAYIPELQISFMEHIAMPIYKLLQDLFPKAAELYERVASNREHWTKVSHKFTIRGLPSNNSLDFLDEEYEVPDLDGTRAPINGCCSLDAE
Another data set addresses Phosphodiesterase 3 (Homo sapiens, UniProt Q14432+Q13370). The data set can be described thus: Inhibition of PDE3. It counts as protein assay.
Another data set has as its target Phosphodiesterase 4 (Homo sapiens, UniProt P27815+Q08499+Q07343+Q08493). The data set can be described thus: Inhibition of PDE4. The class given is protein assay.
The target of data set [3] is cGMP-specific 3',5'-cyclic phosphodiesterase (Canis lupus familiaris, UniProt O77746). The data set can be described thus: Inhibition of PDE5. Details: species or system Homo sapiens.
The next data set has as its target Phosphodiesterase 6. Kind of data set: Inhibition of PDE6. It counts as protein assay, Homo sapiens.
Data set [4] can be described thus: Oral bioavailability in rat at 10 mg/kg. It counts as ADME, organism-based. Particulars: in vivo.
Data set [5] can be described thus: Elimination half life in rat at 2 mg/kg, iv and 10 mg/kg, po. Particulars: in vivo, read-out: beta t1/2 (converted). It counts as ADME, organism-based.
Data set [6] in a line: Clearance in rat at 2 mg/kg, iv and 10 mg/kg, po. It counts as ADME, organism-based. The note with it: in vivo.
Data set [7] is described as follows: Volume of distribution at steady state in rat at 2 mg/kg, iv and 10 mg/kg, po. It counts as ADME, organism-based. Particulars: in vivo, read-out: Vdss.
Data set [8] can be described thus: AUC in rat brain at 2 mg/kg, iv and 10 mg/kg, po. It counts as ADME, organism-based.
Data set [9] is described as follows: AUC in rat plasma at 2 mg/kg, iv and 10 mg/kg, po. It counts as ADME, organism-based.
Data set [10] relates to Rattus norvegicus. The data set can be described thus: Antipsychotic activity in po dosed rat assessed as reduction of MK801-induced hyperactivity. It counts as functional. The arrangement: Activity: scale not given: the % may be the effect or the level left. The note with it: for minimal effective dose: Rattus norvegicus, po, read-out: MED.
Data set [11] relates to Rattus norvegicus. Kind of data set: Antipsychotic activity in po dosed rat assessed as reduction of MK801-induced stereotyped sniffing. Details: Activity: scale not given: the % may be the effect or the level left. The note with it: for minimal effective dose: Rattus norvegicus, po, read-out: MED. The class given is functional.
The species named for another data set is Homo sapiens. The data set can be described thus: Selectivity ratio of IC50 PDE2 to IC50 for human recombinant PDE10A.

Sequence of cAMP and cAMP-inhibited cGMP 3',5'-cyclic phosphodiesterase 10A (Q9Y233 whole entry): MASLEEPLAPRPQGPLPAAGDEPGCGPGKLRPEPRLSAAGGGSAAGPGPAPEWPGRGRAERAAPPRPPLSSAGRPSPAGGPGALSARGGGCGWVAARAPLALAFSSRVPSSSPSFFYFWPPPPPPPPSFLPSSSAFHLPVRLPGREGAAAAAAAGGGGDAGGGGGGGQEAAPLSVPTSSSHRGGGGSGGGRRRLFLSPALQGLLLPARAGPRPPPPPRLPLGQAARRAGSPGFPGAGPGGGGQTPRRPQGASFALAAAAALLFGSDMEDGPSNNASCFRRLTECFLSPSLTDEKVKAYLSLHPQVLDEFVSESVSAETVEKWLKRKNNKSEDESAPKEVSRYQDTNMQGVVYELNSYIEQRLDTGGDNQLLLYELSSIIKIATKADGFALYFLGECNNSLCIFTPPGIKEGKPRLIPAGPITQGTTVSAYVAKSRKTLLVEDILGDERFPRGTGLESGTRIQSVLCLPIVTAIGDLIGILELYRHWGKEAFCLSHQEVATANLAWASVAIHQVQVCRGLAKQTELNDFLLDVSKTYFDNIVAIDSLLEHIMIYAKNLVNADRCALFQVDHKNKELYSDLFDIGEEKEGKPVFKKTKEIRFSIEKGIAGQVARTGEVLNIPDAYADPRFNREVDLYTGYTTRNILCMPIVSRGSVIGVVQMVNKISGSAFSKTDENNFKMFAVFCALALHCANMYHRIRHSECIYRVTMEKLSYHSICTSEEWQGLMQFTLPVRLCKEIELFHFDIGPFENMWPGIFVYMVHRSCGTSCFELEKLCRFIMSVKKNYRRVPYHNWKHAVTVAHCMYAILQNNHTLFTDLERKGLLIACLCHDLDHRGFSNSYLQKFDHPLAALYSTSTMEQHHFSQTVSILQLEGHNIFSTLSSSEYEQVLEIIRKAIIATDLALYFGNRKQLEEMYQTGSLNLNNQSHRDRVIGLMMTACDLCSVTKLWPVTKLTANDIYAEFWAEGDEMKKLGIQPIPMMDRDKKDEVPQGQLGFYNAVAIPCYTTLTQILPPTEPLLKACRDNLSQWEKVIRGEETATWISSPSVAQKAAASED

Take `COc1cc(OC(F)F)cc2c1nnc1c(C)nc(-c3ccncc3C)n12`: the IC50 (in general, the concentration at which inhibition is half-maximal) in data set [1] is 7 nM; in [2], 944 nM; at Phosphodiesterase 3, greater than 10000 nM; at Phosphodiesterase 4, greater than 10000 nM; in data set [3], 4020 nM; on Phosphodiesterase 6, 909 nM.
As to `COc1ccc2nnc3c(C)nc(-c4ccc(F)cc4C)n3c2n1`, the IC50 was 45.9 nM in [1]; 13.2 nM in data set [2]; 7260 nM at Phosphodiesterase 3; greater than 10000 nM on Phosphodiesterase 4; 34100 nM in data set [3]; 1150 nM against Phosphodiesterase 6.
For the compound `COc1cc(N2CCOCC2)cc2c1nnc1c(C)nc(-c3ccccc3C)n12`, the concentration for half-maximal inhibition (IC50) at Phosphodiesterase 3 is greater than 10000 nM; against Phosphodiesterase 4 it was 2920 nM; in [3] it was 651 nM; at Phosphodiesterase 6, 693 nM.
Consider `COc1ccc2nnc3c(C)nc(-c4ccccc4C)n3c2n1`, for which the IC50 is 47.6 nM in [1]; greater than 5000 nM against Phosphodiesterase 3; greater than 10000 nM on Phosphodiesterase 4; 3410 nM in data set [3]; 1570 nM against Phosphodiesterase 6.
Turning to `COc1cccc(-c2nc(C)c3nnc4c(OC)cc(F)cc4n23)c1`, the IC50 in data set [2] was 2000 nM; against Phosphodiesterase 3 it was greater than 1000 nM; against Phosphodiesterase 4 it was greater than 1000 nM; in [3] it was greater than 1000 nM; against Phosphodiesterase 6, greater than 1000 nM.
In the case of `COc1cc(C(F)(F)F)cc2c1nnc1c(C)nc(-c3cnccc3C)n12`, the IC50 in data set [1] is 5.11 nM; in [2], 864 nM; on Phosphodiesterase 3, greater than 10000 nM; against Phosphodiesterase 4 it was greater than 10001 nM; in [3] it was greater than 10000 nM; on Phosphodiesterase 6, 5250 nM.
Take `COc1ccc2nnc3c(C)nc(-c4cc(OC(C)C)ccc4F)n3c2n1`: the IC50 stood at 2430 nM in data set [1] and 102 nM in data set [2].
In the case of `COc1cc(C(F)(F)F)cc2c1nnc1c(C)nc(-c3cccc(F)c3C)n12`, the IC50 is 1.85 nM in [1]; 722 nM in [2]; greater than 5000 nM against Phosphodiesterase 3; greater than 5000 nM at Phosphodiesterase 4; 2130 nM in data set [3]; 1260 nM against Phosphodiesterase 6.
On to `COc1cc(OC)c2nnc3c(C)nc(-c4cccnc4C)n3c2c1`, for which the IC50 is greater than 10000 nM against Phosphodiesterase 3, greater than 10000 nM against Phosphodiesterase 4, 1430 nM in data set [3] and 493 nM on Phosphodiesterase 6. Besides, the bioavailability (usually dose-corrected exposure relative to a reference, in per cent) in data set [4] amounted to 100%. For the same compound, the half-life in data set [5] is 2 h. This compound also returned a clearance in [6] of 4 mL/min/kg. For the same compound, the Vd in [7] came out at 0.4 L/kg. Also, the values for the AUC in data set [8] and in data set [9] were 6590 ng·h/mL and 21300 ng·h/mL, respectively. For the same compound, the Activity in the data set with Rattus norvegicus [10] is 90.2%; in the data set on Rattus norvegicus [11] it was 71.3%. The minimal effective dose in the data set with Rattus norvegicus [10] and in the data set on Rattus norvegicus [11] was 0.25 mg/kg in each case.
`COc1cccc2c1nnc1c(C)nc(-c3ccccc3Cl)n12`: the IC50 against Phosphodiesterase 3 is greater than 10000 nM; against Phosphodiesterase 4, 70.8 nM; in data set [3], 3060 nM; against Phosphodiesterase 6, 1060 nM.
For `COc1cc(F)cc2c1nnc1c(C)nc(-c3sc(C)nc3C)n12`, in that order: greater than 10000 nM, 2460 nM, 4760 nM and 3880 nM.
Consider `COc1cc(F)c2nnc3c(C)nc(-c4ccccc4OC)n3c2c1`, for which the concentration for half-maximal inhibition (IC50) (against Phosphodiesterase 3; on Phosphodiesterase 4; in data set [3]; against Phosphodiesterase 6) was greater than 1000 nM throughout. The Ratio IC50 in the data set listed under Homo sapiens was greater than 400.
For `COc1cc(F)c2nnc3c(C)nc(-c4sccc4C)n3c2c1`, the IC50 turned out to be 2250 nM against Phosphodiesterase 3, 3670 nM against Phosphodiesterase 4, 2780 nM in data set [3] and 1230 nM at Phosphodiesterase 6.
With `COc1cccc2c1nnc1c(C)nc(-c3ccccc3C)n12`, the IC50 against Phosphodiesterase 3 was greater than 10000 nM; at Phosphodiesterase 4, 176 nM; in data set [3], 3670 nM; at Phosphodiesterase 6, 1980 nM. Further, the Ratio IC50 in the data set listed under Homo sapiens was determined as 60.
For `COc1cc(F)cc2c1nnc1c(C)nc(-c3cnccc3C)n12`, the IC50 (on Phosphodiesterase 3; against Phosphodiesterase 4; in [3]; at Phosphodiesterase 6) was greater than 10000 nM throughout.
Turning to `COc1cc(F)cc2c1nnc1c(C)nc(-c3cccc(F)c3C)n12`, the concentration for half-maximal inhibition (IC50) (against Phosphodiesterase 3; against Phosphodiesterase 4; in data set [3]; against Phosphodiesterase 6) was greater than 1000 nM each time.
With `COc1ccc2nnc3c(C)nc(-c4cc(Cl)ccc4Cl)n3c2n1`, the IC50 in data set [1] worked out at 53.1 nM; in data set [2], 2.06 nM; against Phosphodiesterase 3 it was 750 nM; against Phosphodiesterase 4, 4410 nM; in data set [3], 1150 nM; on Phosphodiesterase 6, 829 nM.
For `COc1ccc(F)c(-c2nc(C)c3nnc4ccc(OC)nc4n23)c1`, the half-maximal inhibitory concentration (IC50) against Phosphodiesterase 3 was found to be 1820 nM; on Phosphodiesterase 4, 4820 nM; in data set [3] it was 702 nM; against Phosphodiesterase 6 it was 734 nM.
With `COc1cc(OC)c2nnc3c(C)nc(-c4ccccc4Cl)n3c2c1`, the IC50 in data set [2] is 30.3 nM; against Phosphodiesterase 3 it was greater than 5000 nM; at Phosphodiesterase 4 it was 1910 nM; in data set [3], 436 nM; on Phosphodiesterase 6, 73.15 nM. In addition, the Activity in the data set with Rattus norvegicus [10] came out at 70.3%; with Rattus norvegicus [11] it was 55.7%. Besides, the minimal effective dose in the data set with Rattus norvegicus [10] and in the data set with Rattus norvegicus [11] was 0.5 mg/kg throughout.
With `COc1cc(N2CCOCC2)cc2c1nnc1c(C)nc(-c3ccccc3Cl)n12`, the IC50 on Phosphodiesterase 3 was greater than 10000 nM; on Phosphodiesterase 4, 2680 nM; in [3] it was 603 nM; against Phosphodiesterase 6, 276 nM.
With `COc1ccccc1-c1nc(C)c2nnc3c(OC)cc(F)cc3n12`, the half-inhibitory concentration (IC50) (on Phosphodiesterase 3; against Phosphodiesterase 4; in data set [3]; on Phosphodiesterase 6) was greater than 10000 nM in each case.
With `COc1ccc2nnc3c(C)nc(-c4ccc(Cl)cc4Cl)n3c2n1`, the IC50 (at Phosphodiesterase 3; on Phosphodiesterase 4; in data set [3]; against Phosphodiesterase 6) was greater than 1000 nM in each case.
On to `COc1cc(F)cc2c1nnc1c(C)nc(-c3c(C)nn(C)c3C)n12`, for which the IC50 is greater than 10000 nM on Phosphodiesterase 3, greater than 10000 nM against Phosphodiesterase 4, greater than 10000 nM in data set [3] and greater than 5000 nM against Phosphodiesterase 6.
For the compound `COc1cc(OC)c2nnc3c(C)nc(-c4ccccc4C)n3c2c1`, the IC50 in data set [1] was 5.13 nM; in data set [2], 95.9 nM; against Phosphodiesterase 3 it was greater than 10000 nM; on Phosphodiesterase 4, greater than 10000 nM; in data set [3] it was 1110 nM; against Phosphodiesterase 6, 349 nM.
Turning to `COc1cc(F)cc2c1nnc1c(C)nc(-c3ccncc3C)n12`, the IC50 was 7.2 nM in data set [1]; 1220 nM in data set [2]; greater than 10000 nM against Phosphodiesterase 3; greater than 10000 nM on Phosphodiesterase 4; greater than 10000 nM in data set [3]; greater than 10000 nM against Phosphodiesterase 6.
Turning to `COc1cc(N2CCOCC2)cc2c1nnc1c(C)nc(-c3ccncc3C)n12`, the half-inhibitory concentration (IC50) was 4.37 nM in [2]; greater than 10000 nM on Phosphodiesterase 3; greater than 10000 nM against Phosphodiesterase 4; 5380 nM in data set [3]; 3120 nM against Phosphodiesterase 6.
For the compound `COc1cc(F)cc2c1nnc1c(C)nc(-c3sccc3C)n12`, the IC50 is greater than 10000 nM on Phosphodiesterase 3, 7720 nM against Phosphodiesterase 4, 3600 nM in data set [3] and 3270 nM on Phosphodiesterase 6.
As for `COc1ccc2nnc3c(C)nc(-c4ccccc4Cl)n3c2n1`, the IC50 was 13.1 nM in [1]; 4.3 nM in data set [2]; 1240 nM against Phosphodiesterase 3; greater than 10000 nM on Phosphodiesterase 4; 1680 nM in [3]; 435 nM against Phosphodiesterase 6.
As to `COc1cc(F)cc2c1nnc1c(C)nc(-c3cccnc3C)n12`, the IC50 in data set [1] was 7.84 nM; in data set [2] it was 1270 nM; at Phosphodiesterase 3, greater than 10000 nM; on Phosphodiesterase 4 it was greater than 10000 nM; in data set [3], greater than 5000 nM; against Phosphodiesterase 6, 2830 nM.
As for `COc1cc(OC)c2nnc3c(C)nc(-c4ccccc4C(F)(F)F)n3c2c1`, the half-maximal inhibitory concentration (IC50) in [1] is 3.35 nM; in data set [2], 522 nM; against Phosphodiesterase 3, greater than 1000 nM; against Phosphodiesterase 4, greater than 1000 nM; in [3] it was greater than 1000 nM; against Phosphodiesterase 6, greater than 1000 nM.
Turning to `COc1ccc2nnc3c(C)nc(-c4ccc(F)cc4Cl)n3c2n1`, the IC50 is greater than 1000 nM at Phosphodiesterase 3, greater than 1000 nM at Phosphodiesterase 4, greater than 1000 nM in [3] and 462 nM at Phosphodiesterase 6.
